This note sets out measurements from US9085520B2, “Composition for treating diabetes and metabolic diseases and a preparation method thereof” (KAOHSIUNG MEDICAL UNIVERSITY, priority 2011, dated 2015).

“And” between values parts separate entries of the source, which are not always exact repeats. Equal entries are not always repeated.

The first assay has as its system 3T3-L1 adipocytes. Kind of assay: glucose consumption (remaining glucose) in culture medium of 3T3-L1 adipocytes. As to conditions: 30 μg/ml; culture medium of 3T3-L1 adipocytes after 24 hours; means ± SD, N = 3; control 310 ± 4.0. In kind it is cell-based. As to the method: After precursor adipocytes 3T3-L1 were induced as the matured adipocytes, culture medium with glucose (concentration of 300 mg/dl) and drugs were added, and the concentration of the remaining glucose in the culture medium were measured after 24 hours.
Adipose tissues are major sites for postprandial glucose uptake. Therefore, in vitro anti-diabetic screening model based on measuring glucose consumption after 24 hours in culture medium of 3T3-L1 adipocytes was developed. […] Accordingly, 60 chalcone derivatives with and without substitutions on A-ring were examined in our developed model. […] Structure-activity relationship (SAR) analyses data are also determined.
As to `COc1ccc(/C=C/C(=O)c2ccccc2)cc1` [Compound 7, (E)-3-(4-methoxyphenyl)-1-phenylprop-2-en-1-one], the “remaining glucose concentration in culture medium after 24 hours” value (“remaining glucose concentration” for short) amounted to 261 ± 3.2 mg/dL.

For `COc1cccc(/C=C/C(=O)c2ccccc2)c1` [Compound 8, (E)-3-(3-methoxyphenyl)-1-phenylprop-2-en-1-one], the “remaining glucose concentration” value amounted to 261 ± 7.2 mg/dL.

Take `O=C(/C=C/c1cccc(OCc2ccccc2)c1)c1ccccc1O` [Compound 11, (E)-3-(3-(benzyloxy)phenyl)-1-(2-hydroxyphenyl)prop-2-en-1-one]: the “remaining glucose concentration” value was 256 ± 13.1 mg/dL.

`COc1cccc(/C=C/C(=O)c2ccccc2Br)c1` [Compound 13, (E)-1-(2-bromophenyl)-3-(3-methoxyphenyl)prop-2-en-1-one]: the “remaining glucose concentration” value was determined as 249 ± 5.2 mg/dL.

For the molecule `COc1cccc(/C=C/C(=O)c2cccc(Br)c2)c1` [Compound 14, (E)-1-(3-bromophenyl)-3-(3-methoxyphenyl)prop-2-en-1-one], the “remaining glucose concentration” value was determined as 262 ± 2.2 mg/dL.

For the molecule `COc1cccc(/C=C/C(=O)c2ccc(Cl)cc2)c1` [Compound 15, (E)-1-(4-chlorophenyl)-3-(3-methoxyphenyl)prop-2-en-1-one], the “remaining glucose concentration” value came to 272 ± 22.4 mg/dL.

As for `COc1cccc(/C=C/C(=O)c2ccc(Br)cc2)c1` [Compound 16, (E)-1-(4-bromophenyl)-3-(3-methoxyphenyl)prop-2-en-1-one], the “remaining glucose concentration” value is 257 ± 10.0 mg/dL.

As for `COc1ccc(/C=C/C(=O)c2cccc(Br)c2)cc1` [Compound 17, (E)-1-(3-bromophenyl)-3-(4-methoxyphenyl)prop-2-en-1-one], the “remaining glucose concentration” value is 248 ± 8.0 mg/dL.

For the molecule `COc1ccc(/C=C/C(=O)c2ccc(Br)cc2)cc1` [Compound 18, (E)-1-(4-bromophenyl)-3-(4-methoxyphenyl)prop-2-en-1-one], the “remaining glucose concentration” value was determined as 261 ± 12.7 mg/dL.

Take `O=C(/C=C/c1ccccc1)c1cc(Br)ccc1O` [Compound 19, (E)-1-(5-bromo-2-hydroxyphenyl)-3-phenylprop-2-en-1-one]: the “remaining glucose concentration” value was 253 ± 7.8 mg/dL.

In the case of `COc1ccc(/C=C/C(=O)c2cc(Br)ccc2O)cc1` [Compound 20, (E)-1-(5-bromo-2-hydroxyphenyl)-3-(4-methoxyphenyl)prop-2-en-1-one], the “remaining glucose concentration” value stood at 254 ± 17.6 mg/dL.

With `COc1cccc(/C=C/C(=O)c2cc(Br)ccc2O)c1` [Compound 21, (E)-1-(5-bromo-2-hydroxyphenyl)-3-(3-methoxyphenyl)prop-2-en-1-one], the “remaining glucose concentration” value was 260 ± 3.3 mg/dL.

As for `O=C(/C=C/c1cccc(OCc2ccccc2)c1)c1cc(Br)ccc1O` [Compound 22, (E)-3-(3-(benzyloxy)phenyl)-1-(5-bromo-2-hydroxyphenyl)prop-2-en-1-one], the “remaining glucose concentration” value worked out at 252 ± 0.1 mg/dL.

`O=C(/C=C/c1ccc(OCc2ccccc2)cc1)c1cc(Br)ccc1O` [Compound 23, (E)-3-(4-(benzyloxy)phenyl)-1-(5-bromo-2-hydroxyphenyl)prop-2-en-1-one]: the “remaining glucose concentration” value came out at 256 ± 1.3 mg/dL.

Take `O=C(/C=C/c1ccc(O)cc1)c1ccccc1O` [Compound 24, (2E)-1-(2-hydroxyphenyl)-3-(4-hydroxyphenyl)-2-propen-1-one]: the “remaining glucose concentration” value was 267 ± 3.4 mg/dL.

In the case of `O=C(/C=C/c1ccc(OCc2ccccc2)cc1)c1ccccc1O` [Compound 25, (E)-3-(4-(benzyloxy)phenyl)-1-(2-hydroxyphenyl)prop-2-en-1-one], the “remaining glucose concentration” value was determined as 260 ± 3.8 mg/dL.

As to `COc1ccc(/C=C/C(=O)c2ccccc2F)cc1` [Compound 28, (E)-1-(2-fluorophenyl)-3-(4-methoxyphenyl)prop-2-en-1-one], the “remaining glucose concentration” value is 259 ± 0.3 mg/dL.

Regarding `O=C(/C=C/c1ccc(O)cc1)c1ccccc1` [Compound 29, (E)-3-(4-hydroxyphenyl)-1-phenylprop-2-en-1-one], the “remaining glucose concentration” value came out at 263 ± 5.6 mg/dL.

Turning to `O=C(/C=C/c1cccc(OCc2ccccc2)c1)c1ccccc1` [Compound 30, (E)-3-(3-(benzyloxy)phenyl)-1-phenylprop-2-en-1-one], the “remaining glucose concentration” value is 285 ± 8.2 mg/dL.

`O=C(/C=C/c1ccc(OCc2ccccc2)cc1)c1ccccc1` [Compound 31, (E)-3-(4-(benzyloxy)phenyl)-1-phenylprop-2-en-1-one]: the “remaining glucose concentration” value was 274 ± 13.0 mg/dL.

In the case of `O=C(/C=C/c1ccc2c(c1)OCO2)c1ccccc1` [Compound 32, (E)-3-(benzo[d][1,3]dioxol-5-yl)-1-phenylprop-2-en-1-one], the “remaining glucose concentration” value came out at 252 ± 18.1 mg/dL.

In the case of `O=C(/C=C/c1ccc2c(c1)OCO2)c1ccccc1O` [Compound 33, (E)-3-(benzo[d][1,3]dioxol-5-yl)-1-(2-hydroxyphenyl)prop-2-en-1-one], the “remaining glucose concentration” value was 279 ± 7.6 mg/dL.

With `O=C(/C=C/c1cccc(OCc2ccccc2)c1)c1ccc(O)cc1O` [Compound 34, (E)-3-(3-(benzyloxy)phenyl)-1-(2,4-dihydroxyphenyl)prop-2-en-1-one], the “remaining glucose concentration” value came out at 283 ± 2.6 mg/dL.

Consider `COc1cccc(/C=C/C(=O)c2cc(F)ccc2O)c1` [Compound 35, (E)-1-(5-fluoro-2-hydroxyphenyl)-3-(3-methoxyphenyl)prop-2-en-1-one], for which the “remaining glucose concentration” value turned out to be 297 ± 9.3 mg/dL.

With `COc1ccc(/C=C/C(=O)c2cc(Cl)ccc2O)cc1` [Compound 37, (E)-1-(5-chloro-2-hydroxyphenyl)-3-(4-methoxyphenyl)prop-2-en-1-one], the “remaining glucose concentration” value amounted to 282 ± 16.4 mg/dL.

Regarding `COc1cccc(/C=C/C(=O)c2cc(Cl)ccc2O)c1` [Compound 38, (E)-1-(5-chloro-2-hydroxyphenyl)-3-(3-methoxyphenyl)prop-2-en-1-one], the “remaining glucose concentration” value turned out to be 266 ± 23.3 mg/dL.

`COc1cccc(/C=C/C(=O)c2ccccc2F)c1` [Compound 39, (E)-1-(2-fluorophenyl)-3-(3-methoxyphenyl)prop-2-en-1-one]: the “remaining glucose concentration” value came to 285 ± 4.4 mg/dL.

For `COc1ccc(/C=C/C(=O)c2cccc(F)c2)cc1` [Compound 40, (E)-1-(3-fluorophenyl)-3-(4-methoxyphenyl)prop-2-en-1-one], the “remaining glucose concentration” value was determined as 298 ± 15.5 mg/dL.

As to `COc1cccc(/C=C/C(=O)c2cccc(F)c2)c1` [Compound 41, (E)-1-(3-fluorophenyl)-3-(3-methoxyphenyl)prop-2-en-1-one], the “remaining glucose concentration” value came out at 282 ± 10.1 mg/dL.

`COc1cccc(/C=C/C(=O)c2ccc(F)cc2)c1` [Compound 42, (E)-1-(4-fluorophenyl)-3-(3-methoxyphenyl)prop-2-en-1-one]: the “remaining glucose concentration” value worked out at 285 ± 1.6 mg/dL.

Consider `O=C(/C=C/c1ccccc1)c1cccc(Cl)c1` [Compound 43, (E)-1-(3-chlorophenyl)-3-phenylprop-2-en-1-one], for which the “remaining glucose concentration” value was determined as 291 ± 9.2 mg/dL.

`COc1cccc(/C=C/C(=O)c2cccc(Cl)c2)c1` [Compound 44, (E)-1-(3-chlorophenyl)-3-(3-methoxyphenyl)prop-2-en-1-one]: the “remaining glucose concentration” value stood at 287 ± 13.4 mg/dL.

For the molecule `COc1ccc(/C=C/C(=O)c2cccc(Cl)c2)cc1` [Compound 45, (E)-1-(3-chlorophenyl)-3-(4-methoxyphenyl)prop-2-en-1-one], the “remaining glucose concentration” value is 255 ± 27.1 mg/dL.

Take `O=C(/C=C/c1ccccc1)c1ccc(Cl)cc1` [Compound 46, (E)-1-(4-chlorophenyl)-3-phenylprop-2-en-1-one]: the “remaining glucose concentration” value stood at 295 ± 8.8 mg/dL.

As to `COc1ccc(/C=C/C(=O)c2ccc(Cl)cc2)cc1` [Compound 47, (E)-1-(4-chlorophenyl)-3-(4-methoxyphenyl)prop-2-en-1-one], the “remaining glucose concentration” value is 293 ± 7.8 mg/dL.

`O=C(/C=C/c1ccccc1)c1ccccc1Br` [Compound 48, (E)-1-(2-bromophenyl)-3-phenylprop-2-en-1-one]: the “remaining glucose concentration” value is 249 ± 20.8 mg/dL.

For `O=C(/C=C/c1ccccc1)c1cccc(Br)c1` [Compound 49, (E)-1-(3-bromophenyl)-3-phenylprop-2-en-1-one], the “remaining glucose concentration” value came to 299 ± 7.3 mg/dL.

Consider `O=C(/C=C/c1ccccc1)c1ccc(Br)cc1` [Compound 50, (E)-1-(4-bromophenyl)-3-phenylprop-2-en-1-one], for which the “remaining glucose concentration” value is 295 ± 5.8 mg/dL.

In the case of `O=C(/C=C/c1ccc(OCc2ccccc2)cc1)c1ccccc1I` [Compound 53, (E)-3-(4-(benzyloxy)phenyl)-1-(2-iodophenyl)prop-2-en-1-one], the “remaining glucose concentration” value came to 249 ± 3.6 mg/dL.

With `O=C(/C=C/c1cccc(OCc2ccccc2)c1)c1ccccc1I` [Compound 54, (E)-3-(3-(benzyloxy)phenyl)-1-(2-iodophenyl)prop-2-en-1-one], the “remaining glucose concentration” value is 238 mg/dL and 238 ± 1.1 mg/dL.

The same assay, now with this note: FIG. 1; 30 μg/ml, medium glucose 300 mg/dl, remaining glucose after 24 hours.
As for `COc1cccc(/C=C/C(=O)c2ccc(Cl)cc2)c1` [Compound 15, (E)-1-(4-chlorophenyl)-3-(3-methoxyphenyl)prop-2-en-1-one], the “glucose absorption activity of adipocytes 3T3-L1 (anti-hyperglycemic ability)” value is recorded as “not significantly different”.

Regarding `COc1cccc(/C=C/C(=O)c2ccc(Br)cc2)c1` [Compound 16, (E)-1-(4-bromophenyl)-3-(3-methoxyphenyl)prop-2-en-1-one], the “glucose absorption activity of adipocytes 3T3-L1 (anti-hyperglycemic ability)” value is listed as “not significantly different”.
